Patent US20260027065A1, “LIVER/ADIPOSE TISSUE DUAL-TARGETING COMPOSITE NANO-DRUG CARRIER” (IUCF-HYU (INDUSTRY-UNIVERSITY COOPERATION FOUNDATION …, priority 2022, published 2026)

System: animal models of obesity-induced type 2 diabetes
Test: Treatment effect (body weight, insulin resistance, biomarkers), type 2 diabetes model
Format: in vivo, C57BL/6J mice
Conditions: ZnPP 0.25 mg/kg i.p. once a week for 4 weeks together with HO-1 inducer-encapsulated ATS/PLGA NPs 1 mg/kg i.v.; FIG. 9
Experimental: C57BL/6J mice were purchased from Orient Bio Inc. and acclimated for one week. From week 3, a 60% kcal high fat diet (HFD, Central Lab Animal, Inc.) was mixed with normal diet and fed. From week 6, only HFD was fed, and HFD was additionally fed for 8 weeks. In week 20, it was confirmed that the body weight reached 45 to 55 g, and the fasting blood glucose level also exceeded 250 mg/dl.
After constructing the animal models of obesity-induced type 2 diabetes and the animal models of obesity-induced non-alcoholic steatohepatitis, ATS/PLGA NPs in which 1 mg/kg of heme oxygenase-1 inducer was encapsulated were injected intravenously once a week for 4 weeks. Here, the results of a control administered intravenously with ATS/PLGA NPs (vehicle) in which 1 mg/kg of heme oxygenase-1 inducer was not encapsulated once a week for 4 weeks and a control administered intraperitoneally with 0.25 mg/kg of heme oxygenase-1 inhibitor (ZnPP) once a week for 4 weeks while intravenous administration with ATS/PLGA NPs in which 1 mg/kg of heme oxygenase-1 inducer was encapsulated once a week for 4 weeks were compared. The body weight was measured for 7 weeks, and then the mice were dissected to obtain mRNA and proteins from major organs such as the liver and adipose tissue for biomarker analysis.

C=CC1=C(C)c2cc3[n-]c(cc4[n-]c(cc5nc(cc1n2)C(C)=C5C=C)c(C)c4CCC(=O)O)c(CCC(=O)O)c3C.[Zn+2] [ZnPP]
Effect on body weight with co-administered HO-1 inhibitor: no effect
